Tests used:
Format in all cases: biochemical
Conditions in all cases: experimental data or published literature, primary rat hepatocyte cultures
Influx of fatty acids = assay: Observed % change in influx of fatty acids, drug-treated hepatocytes
Experimental: (§1) Liver specific cells or cell-lines are treated with known doses of drugs or toxicants. Upon treatment, the cells are harvested and cellular extracts prepared. In these extracts, the drug-induced alterations in metabolite profiles can be obtained by any technique such as biochemical assays, mass spectrometry, NMR or any other technique for obtaining metabolite profile known in the art. These are then compared with values obtained in the absence of the drug. Metabolites with significant alterations from their untreated values are identified. This generates what is referred to as altered metabolites 1.
(§2) All metabolite profiles upon drug treatment are obtained experimentally from primary rat hepatocyte cultures. The drug-induced metabolite profiles are then compared with those from untreated cells to obtain altered metabolites 1. The CMA-ES procedure described above is applied wherein, an initial population of 40 randomly generated parameter sets with fitness criteria of 10^−8 is used and the set of likely altered parameters are estimated for the following drugs. Further, a set of biochemical assays are carried out wherever possible to experimentally measure the level of parameter alteration.
(§3) For the validation of this disclosure, biochemical enzymatic assays are used. However, methods such as NMR, or mass spectrometry can also be used for metabolite data collection. […]

fof1ATPase = assay: Observed % change in concentration of fof1ATPase
Experimental: as §1, §2, §3

[1] = system: Glutathione reductase (mitochondrial); assay: Observed % change in glutathione reductase (mitochondrial)
Experimental: as §1, §2, §3

[2] = system: Glutathione peroxidase (mitochondrial); assay: Observed % change in glutathione peroxidase (mitochondrial)
Experimental: as §1, §2, §3

[3] = system: Carnitine palmitoyl transferase; assay: Observed % change in carnitine palmitoyl transferase
Experimental: as §1, §2, §3

[4] = system: Gamma glutamyl cysteine synthetase; assay: Observed % change in gamma glutamyl cysteine synthetase
Experimental: as §1, §2, §3

[5] = system: Glutathione reductase (cytosolic); assay: Observed % change in glutathione reductase (cytosolic)
Experimental: as §1, §2, §3

[6] = system: Glutathione peroxidase (cytosolic); assay: Observed % change in glutathione peroxidase (cytosolic)
Experimental: as §1, §2, §3

k proton leak = assay: Observed % change in k proton leak
Experimental: as §1, §2, §3

k Ca2+/Na+ = assay: Observed % change in k Ca2+/Na+

Row | Structure (SMILES) | Influx of fatty acids, observed % change (Influx of fatty acids) [%] | Concentration_of_fof1ATPase, observed % change (fof1ATPase) [%] | Glutathione reductase (mitochondrial), observed % change [1] [%] | Glutathione peroxidase (mitochondrial), observed % change [2] [%] | Carnitine palmitoyl transferase, observed % change [3] [%] | Gamma glutamyl cysteine synthetase, observed % change [4] [%] | Glutathione reductase (cytosolic), observed % change [5] [%] | Glutathione peroxidase (cytosolic), observed % change [6] [%] | k proton leak, observed % change (k proton leak) [%] | k Ca2+/Na+, observed % change (k Ca2+/Na+) [%]
1 | CCCC(CCC)C(=O)O [Valproic acid] | −36.00 | −1.00 | −60.00 | −44.00 | −70.00 | −53.00 | 40.00 | −22.00 | 400.00 | 900.00
2 | O=C(O)Cc1ccccc1Nc1c(Cl)cccc1Cl [Diclofenac] | −9.00 | −22.00 | 20.00 | 21.00 | 0.00 | 0.00 | 360.00 | 7.00 | 400.00 | 900.00

— patent US20130323767A1, “Method to Identify Liver Toxicity Using Metabolite Profiles” (STRAND LIFE SCIENCES PRIVATE LIMITED, priority 2011, published 2013)
